Measured values published in patent US7094797B2, “Organ fibrosis inhibitor” (Ajinomoto Co., Inc., priority 2001, dated 2006).

Assays:
[1] = test system: Hepatic stellate cells; test: PDGF-stimulated DNA synthesis (BrdU uptake, ELISA) of Hepatic stellate cells; assay type: cell-based, rat; conditions: PDGF 25 ng/ml
Method: Hepatic stellate cells were isolated from a male Wistar rat liver and were cultured by the liver perfusion method with pronase E and collagenase. Hepatic stellate cells on day 8 to day 14 were cultured overnight in a culture medium containing 10 vol. % fetal calf serum (FCS). The culture medium was replaced with a culture medium containing 0.1 vol. % FCS, and it was cultured for 48 hours. Subsequently, L-histidine as the test substance was added in an amount to give a concentration of 1 to 30 mM. Then, further, platelet-derived growth factor (PDGF) was added to give a final concentration of 25 ng/ml, and the Hepatic stellate cells were cultured for 24 hours. Six hours before the completion of the culturing, bromodeoxyuridine (BrdU) was added to the culture system. After the completion of the culturing, the BrdU uptake into the cells was assayed by ELISA (enzyme-linked immunosorbent assay). As a control, only PDGF (at the final concentration of 25 ng/ml) was added to the culture medium. When the BrdU uptake in the control was defined as 100%, the value of each of the groups was calculated and the results are shown in FIG. 2.
In the same manner as in Example 2, the effects of L-histidine and D-histidine (individually at 30 mM) on the DNA synthesis of Hepatic stellate cells were compared with each other. When the BrdU uptake in the control was defined as 100%, the value of each of the groups was calculated and is shown in FIG. 3.
Hepatic stellate cells were isolated from male Wistar rat liver, and were cultured by the liver perfusion method with pronase E and collagenase. Hepatic stellate cells on day 8 to day 14 were cultured overnight in a culture medium containing 10 vol. % fetal calf serum (FCS). The culture medium was replaced with a 0.1 vol. % FCS culture medium, and it was cultured for 48 hours. Subsequently, L-cysteine, L-histidine or a composition of L-cysteine and L-histidine as a test substance was added thereto. […] When the BrdU uptake in the control was defined as 100%, the value of each of the groups was calculated and the results are shown in FIG. 4.

[2] = test system: Human normal lung fibroblast cells (HLF-1 cell); test: DNA synthesis (BrdU uptake, ELISA) of human normal lung fibroblast cells stimulated with PDGF or FCS; assay type: cell-based; conditions: HLF-1, 10 or 30 mM, 24 hours
Method: Human normal lung fibroblast cells (HLF-1 cell) were cultured overnight in a culture medium containing 10 vol. % fetal calf serum (FCS). Subsequently, the culture medium was replaced with a 0.1 vol. % FCS culture medium, and it was cultured for 24 hours. Subsequently, L-histidine (His) as the test substance was added so that the concentration was 10 or 30 mM. Then, further, platelet-derived growth factor (PDGF) was added to give a final concentration of 25 ng/ml or FCS was added to give a final concentration of 5 vol. %, and the HLF-1 cells were cultured for 24 hours. Six hours before the completion of the culturing, bromodeoxyuridine (BrdU) was added to the culture system. After the completion of the culturing, the BrdU uptake into the cells was assayed by ELISA (enzyme-linked immunosorbent assay). As a control, only PDGF (at the final concentration of 25 ng/ml) or FCS (at the final concentration of 5 vol. %) was added to the culture medium.

[3] = test system: liver fibrosis induced by dimethylnitroseamine (DMN) in SD rat; test: DMN-induced liver fibrosis in rat, amount of hydroxyproline (Hyp) in the liver; assay type: in vivo; conditions: male SD rat, DMN 10 mg/kg i.p. three times weekly for 3 weeks; His 0.2, 0.5, 1.0, 2.0 wt. % in feed, oral; day 21; FIG. 1
Method: Dimethylnitroseamine (DMN) was administered intraperitoneally at 10 mg/kg three times weekly to a male 9-week-old SD rat for 3 weeks to induce liver fibrosis. A commercially available feed or experimental diets prepared by adding L-histidine (His) as a test substance at concentrations of 0.2, 0.5, 1.0, and 2.0 wt. % to a commercially available feed were fed beginning on the day of start of DMN administration and thereafter. On day 21 from the start of the DMN administration, the liver was collected to assay the amount of hydroxyproline (Hyp) in the liver as a liver fibrosis marker, using an amino acid analyzer.

[4] = test system: Human kidney mesangial cells; test: DNA synthesis (BrdU uptake, ELISA) of human kidney mesangial cells stimulated with FCS; assay type: cell-based; conditions: 10 or 30 mM, FCS 5 vol. %, 24 hours; FIG. 6
Method: Human kidney mesangial cells were cultured overnight in a culture medium containing 10 vol. % fetal calf serum (FCS). Subsequently, the culture medium was replaced with a 0.1 vol. % FCS culture medium, and it was cultured for 24 hours. Subsequently, L-histidine (His) as a test substance was added in an amount to give a concentration of 10 or 30 mM. Then, further, FCS was added to give a final concentration of 5 vol. %, and the mesangial cells were cultured for 24 hours. Six hours before the completion of the culturing, bromodeoxyuridine (BrdU) was added to the culture system. After the completion of the culturing, the BrdU uptake into the cells was assayed by ELISA (enzyme-linked immunosorbent assay). As a control, only 5 vol. % FCS was added to the culture medium. When the BrdU uptake in the control was defined as 100%, the value of each of the groups was calculated and the results are shown in FIG. 6.

[5] = test system: liver damage due to D-galactosamine administration; conditions: rat given L-histidine; cited from earlier work
[6] = 30 mM, levels of suppression of L- and D-form almost equal, FIG. 3

| SMILES | DNA synthesis of Hepatic stellate cells activated with PDGF (BrdU uptake) [1, 6] | DNA synthesis of human normal lung fibroblast cell with FCS (BrdU uptake) ([2]; FCS 5 vol. %, FIG. 5b) | DNA synthesis of human normal lung fibroblast cell with PDGF (BrdU uptake) ([2]; PDGF 25 ng/ml, FIG. 5a) | amount of Hyp in the liver (liver fibrosis marker) [3] | DNA synthesis of human kidney mesangial cell with FCS (BrdU uptake) [4] | DNA synthesis of Hepatic stellate cells activated with PDGF (BrdU uptake) ([1]; 1 to 30 mM, 24 hours, dose-dependent, FIG. 2) | liver damage due to D-galactosamine administration [5] |
| --- | --- | --- | --- | --- | --- | --- | --- |
| N[C@H](Cc1c[nH]cn1)C(=O)O [D-histidine] | strongly suppressed | – | – | – | – | – | – |
| N[C@@H](Cc1c[nH]cn1)C(=O)O [L-histidine] | strongly suppressed | strongly suppressed | strongly suppressed | significantly decreased | strongly suppressed | strongly suppressed | can be reduced |
